Data from patent US20220023269A1, “Methods Of Treating Diabetes In Severe Insulin-Resistant Diabetic Subjects” (Balticgruppen Bio AB, priority 2018, published 2022).

Columns and labels:
[1] = system: CBA mice on HFD; assay: In vivo lipogenesis; conditions: 2 mg/g in HFD, 5 weeks
Method: After 90 minutes 0.2-0.3 g liver were isolated and homogenised in 3 ml PBS before addition of 6 ml chloroform/methanol (2:1). Samples were mixed until phase separation no longer occurred and left at RT 30 minutes before centrifuged, 4,500 rpm, 5 minutes. The water phase was removed and 3 ml chloroform transferred to a scintillation vial and evaporated to dryness by a stream of nitrogen while standing in a 40° C. water bath. The residue was dissolved in 3 ml optiphase hisafe 3 (Perkin Elmer #1200.437) and ^3H determined for 1 minute in a Wallac 1414 counter. ^3H values were normalised to liver weight.

[2] = system: AMPK in Wi-38 human lung fibroblast cells; assay: AMPK activation assay in Wi-38 cells (immunoblot); assay type: cell-based; conditions: 2.5, 5 or 10 μM, 16 hours; dose-dependent
Method: All cell lines were lysed in 0.1 M Tris-HCl, pH 6.8, 2% SDS, 10 mM sodium fluoride (SIGMA #S7920), 10 mM β-glycerophosphate (SIGMA #G6376), and 1 mM sodium vanadate (SIGMA #72060) and supernatant collected after 1 minute at 14,000 rpm. Islets (human and mouse) were lysed in 0.1 M Tris-HCl, pH 6.8, 2% SDS, protease inhibitor (Roche #04 693 124 001) and phosphatase inhibitor (Roche #04 906 837 001). Right calf muscle, heart, iWAT, and interscapular BAT was crushed in a pestle using liquid nitrogen and homogenised in ice cold RIPA buffer (150 mM sodium chloride (SIGMA #S7653), 1.0% NP40 (USB), 0.5% sodium deoxycholate (SIGMA #D6750), 0.1% SDS, 50 mM Tris pH 8.0, 20 mM sodium pyrophosphate (SIGMA #71515), 10 mM sodium fluoride, 10 mM β-glycerolphosphate, 1 mM sodium vanadate and protease inhibitor cocktail (Roche #04693124001), 1 tablet/10 ml lysis buffer). The supernatant was collected after 2 min at 14,000 rpm. This procedure was repeated until all fat was eliminated and the supernatant was clear, at 4° C. Samples were analysed on 4-15% polyacrylamide gels. Values were normalised toward AMPKα, β-Actin, GAPDH or the respective non-phosphorylated counterpart.
Table 3 contains origin of cell lines, growth conditions and settings for activation of AMPK via the test material. […]

[3] = system: obese, diabetic hIAPPtg mice; assay: Diet switch in hIAPPtg mice: HFD 9 w then test material-HFD (2 mg/g) 7 w; assay type: in vivo
Method: 10-11 weeks old male hIAPPtg; CBA mice and wild type littermates were fed HFD for 9 weeks. After 9 weeks mice were either sacrificed or randomised into two groups either continuing on HFD or switched to test material-HFD (2 mg/g) for an additional 7 weeks.
Food intake was measured weekly by giving each cage 200 g pellet. After one week, the amount of pellets consumed were calculated and adjusted according to the number of animals/cage. Body weight was measured weekly. Body composition was assessed using EchoMRI.
Islets amyloid was quantification was done on pancreatic tissues isolated from hIAPPtg mice on HFD for 16 weeks (n=7 mice/n=69 islets) and hIAPPtg mice on HFD for 9 weeks then switched to test material-HFD (2 mg/g) for 7 weeks (n=5 mice/n=48 islets). Isolated pancreases was direct frozen, sectioned, and amyloid content quantified by staining with Thioflavin-S as previously described (Reference 2). For ex vivo analyses, islets were isolated by collagenase digestion of the pancreas (Reference 1) and cultured in RPMI medium 1640 (GIBCO #11879-0) supplemented with 11.1 or 22.2 mM glucose (GIBCO #A24940-01), 1% fetal bovine serum (GIBCO #10500), 50 U; μg/ml Pen/Strep (Gibco #15140-122), 10 mM Hepes (Umeå University, Laboratory medicine), 1 mM sodium pyruvate (GIBCO #11360-039) and 0.1% 2-Mercaptoethanol (Sigma #M3148). 0, 2.5, 5.0, and 10 μM test material were added from day 0 of culture. For assessing the effect of autophagy inhibition, 3-Methyladenine (3-MA, Aldrich #M9281), 5 μM, was added from day 0 of culture in combination with test material, 5 μM. The control contained DMSO 1:2000. Medium and compounds were changed every second day. After 92 hours of treatment islets were embedded, sectioned and amyloid content quantified by staining with Thioflavin-S as previously described (Reference 2). A minimum of 3 independent experiments was evaluated.

[4] = system: patients suffering from type-2 diabetes; assay: Renal hemodynamics / glomerular perfusion in humans; assay type: in vivo, human

With `O=C(Nc1nc(=O)n(Cc2ccc(Cl)cc2)s1)c1ccc(Cl)cc1` [test material, 4-chloro-N-[2-[(4-chlorophenyl)methyl]-3-oxo-1,2,4-thiadiazol-5-yl]benzamide] the “reduction of hepatic DNL” value [1] was about 45%, the “levels of pAMPK (p-T172)” value [2] was “increased” and the “p-S79 ACC (pACC) levels” value [2] was “increased”. The body fat ([3]; 2 mg/g) was “induced body weight and body fat loss”, the body weight ([3]; 2 mg/g) was “induced body weight and body fat loss” and the “amount of islet amyloid formed” value ([3]; 2 mg/g for 7 w, vs continued HFD) was “significantly reduced”. For the same compound, the “established hyperglycemia (fasted blood glucose)” value ([3]; 2 mg/g, 6 w after the switch) was “reverted”, the “established hyperinsulinemia (fasted insulin)” value ([3]; 2 mg/g, 6 w after the switch) was “reverted” and the “established insulin resistance (HOMA-IR)” value ([3]; 2 mg/g, 6 w after the switch) was “reverted”. For the same compound, the “microvascular perfusion in glomeruli” value ([4]; humans) was “positive effect on microvascular perfusion in glomeruli” and the renal hemodynamics ([4]; patients suffering from type-2 diabetes) was “positive effects on renal hemodynamics”.
